Data as given in patent publication US20240041922A1, “METHODS AND COMPOSITIONS” (Monash University, priority 2020, published 2024).
Entries after “also recorded” stand apart in the source; their conditions may differ.

Legend:
[1] = system: wound-resident muscle stem cells; experiment: Larval zebrafish needle stab muscle injury, wound site proliferation (EdU); type: in vivo; details: needle stab injury, agent alone
Experimental: 4dpf larvae were anaesthetized in 0.01% tricaine (MS-222) (Sigma-Aldrich) in Ringer's solution. Mechanical injures were targeted either to the dorsal or ventral myotome above the cloaca when the larvae is oriented dorsal to the top, anterior to the left. Needle-stick injury was carried out as previously described (Gurevich, D. B. el al. Asymmetric division of clonal muscle stem cells co-ordinate muscle regeneration in vivo. Science 353 6295 aad9969 (2016)). Briefly, the myotome was subjected to a single 30-gauge needle puncture that generates an extensive injury with many damaged muscle fibres. For laser-induced injury, anaesthetised larvae were mounted in a thin layer of 1% low-melt agarose in Ringer's solution. Injuries were carried out using a UV-nitrogen laser pulsed through a coumarin 440 nm dye cell coupled to a Zeiss Axioplan microscope (MicroPoint Laser System, Andor Technology). On average a laser injury required pulses for 5-10 sec from laser beams focused through a 40× water immersion objective. For time-lapse analysis of the immediate response to injury, muscle fibre ablations were achieved using a SIM scanner (Olympus) at 790 nm and 200 msec dwell time at 100% laser power on an Olympus FVMPE-RS upright multi-photon microscope equipped with a 25×/1.05 water immersion objective. Injury-responding macrophages were tracked using the manual tracking plugin in Fiji.
(§1) Cell ablation was carried out as previously described (Pisharath, H. & Parsons, M. J. in Zebrafish 133-143 (Springer, 2009)) with minor modifications. Larvae at the appropriate stage were incubated in 5-10 mM metronidazole (Mtz) (Sigma-Aldrich) in Ringer's solution and daily refreshed until experimental end point. Drug treatments were carried out by incubating 4 dpf needle stick injured larvae in 5 and 10 μM cenicriviroc (CVC) (Med Chem Express) and 5 and 10 μM maraviroc (MVC) (Med Chem Express) in Ringer's solution immediately post injury and refreshed daily.
The effect of drug treatment on laser ablation muscle injury was assayed by treating larvae with 5 μM CVC for 2 h prior to injury and with larvae being maintained in the drug until experimental end point. […] Chemokine supplementation experiments were carried out in plasticware coated with 0.1% bovine serum albumin (BSA) overnight (rinsed in Ringer's solution prior to use) to minimise protein adsorption. Larvae were treated with 57 nM recombinant human visfatin (hrNAMPT(1)) (PeproTech), 57 nM recombinant murine CCL8/MCP-2 (mrCCL8) (PeproTech) and combinations with Mtz and CVC.
Larvae: Labelling and detection was carried out as previously described (Nguyen, P. D. et al. Muscle stem cells undergo extensive clonal drift during tissue growth via Meox1-mediated induction of G2 cell-cycle arrest. Cell Stem Cell 21, 107-119. e106 (2017))^55 with minor alteration. 6 dpf/2 dpi larvae were pulsed with 2.5 nM EdU (Thermo Fisher) for 1h and chased for a further 1.5 h prior to fixation. Cell culture: Cells were incubated for 1 h in media supplemented with 10 μM EdU. Following Edu pulse, C2C12 cells were fixed immediately, while primary mouse myoblast co-cultures were rinsed in PBS, replaced with media and incubated for a further 2 h following which the cells were fixed. Cells were processed using the Click-iT™ EdU Alexa Fluro™ 647 imaging Kit (Thermo Fisher) following the manufacturer's protocol.

[2] = system: larval zebrafish skeletal muscle; experiment: Larval zebrafish muscle regeneration by birefringence imaging; type: in vivo; details: larvae soaked in drug after needle stab injury
Experimental: 4dpf larvae were anaesthetized in 0.01% tricaine (MS-222) (Sigma-Aldrich) in Ringer's solution. Mechanical injures were targeted either to the dorsal or ventral myotome above the cloaca when the larvae is oriented dorsal to the top, anterior to the left. Needle-stick injury was carried out as previously described (Gurevich, D. B. el al. Asymmetric division of clonal muscle stem cells co-ordinate muscle regeneration in vivo. Science 353 6295 aad9969 (2016)). Briefly, the myotome was subjected to a single 30-gauge needle puncture that generates an extensive injury with many damaged muscle fibres. […]
Fixed and Immunostained cell culture samples were imaged on a Leica DMi8 inverted widefield microscope with a 10× objective. Birefringence imaging was carried out as previously described (Berger, J., Sztal, T. & Currie, P. D. Quantification of birefringence readily measures the level of muscle damage in zebrafish. Biochemical and biophysical research communications 423, 785-788 (2012)), using a Leica DM IRB upright microscope integrated with the Abrio software (CRI Hinds instruments) using a 5× objective. Images were analysed using the software Fiji^52, whereby the mean grey value of the injury site birefringence is normalised to the region before and after it to calculate relative birefringence of the wound site. […]

PAX7+ satellite cells = experiment: Primary mouse myoblast mono- and co-cultures, PAX7+ satellite cell proliferation (EdU); type: cell-based; details: 100 nM inhibitor; for effect on macrophage-stimulated satellite cell proliferation: MB+macrophage co-culture; for effect on NAMPT-stimulated satellite cell proliferation: with hrNAMPT
Experimental: Larvae: Labelling and detection was carried out as previously described (Nguyen, P. D. et al. Muscle stem cells undergo extensive clonal drift during tissue growth via Meox1-mediated induction of G2 cell-cycle arrest. […] Cell culture: Cells were incubated for 1 h in media supplemented with 10 μM EdU. […] Cells were processed using the Click-iTTM EdU Alexa FluroTM 647 imaging Kit (Thermo Fisher) following the manufacturer's protocol. For isolation of primary mouse myoblasts, limb skeletal muscle from E17.5 C57/BL6J mice were minced and digested in 0.125% Trypsin at 37° C. for 20 min. […] Myoblasts were again depleted for fibroblasts prior to co-culturing on gelatin-coated 48 well plates in DMEM+20% FBS+10% L929-conditioned medium. 100,000 myoblasts were plated with either 7,500 MafB/c-Maf deficient (Maf-DKO) macrophages (Aziz, A., Soucie, E., Sarrazin, […]. MafB/c-Maf deficiency enables self-renewal of differentiated functional macrophages. […] For drug treatments, the media were supplemented with appropriate doses and cultured for 24 h.

C2C12 myoblasts = experiment: C2C12 myoblast proliferation (EdU incorporation); type: cell-based, mouse; details: for effect on NAMPT-induced myoblast proliferation: co-administration with NAMPT, 6 h
Experimental: Larvae: Labelling and detection was carried out as previously described (Nguyen, P. D. et al. Muscle stem cells undergo extensive clonal drift during tissue growth via Meox1-mediated induction of G2 cell-cycle arrest. […] Cell culture: Cells were incubated for 1 h in media supplemented with 10 μM EdU. […] Cells were processed using the Click-iTTM EdU Alexa FluroTM 647 imaging Kit (Thermo Fisher) following the manufacturer's protocol. The mouse muscle cell line […]. Serial passaging and differentiation of myogenic cells isolated from dystrophic mouse muscle. Nature 270, 725 (1977) were cultured in growth media (Dulbecco's Modified Eagle Medium (4.5 g/l D-Glucose, No L Glutamine, No Sodium Pyruvate (Gibco))+20% Fetal Bovine Solution-One Shot (Gibco)+1% Glut Max 100x (Gibco)). Cells were maintained at 37° C., 5% CO2. Cells at 70% confluence, passage 8 were extracted from T75 flasks with 0.025% Tryspin EDTA (Gibco), neutralised in growth media, spun at 180×g for 5 min to pellet cells. The cells were then resuspended in 10 ml of fresh growth media. 500 μl of cells were plated on a 8-well on cover glass II (Sarstedt) chamber slide at a density of 1×10^3 cells/ml. Cells were left 4 h at 37° C. to re-attach. For drug treatments, the media were supplemented with appropriate doses and cultured for 6 h.

Nampt = experiment: NAD+/NADH levels after Nampt enzymatic inhibition; type: in vivo, zebrafish; details: 10 μM
larval zebrafish = experiment: Tolerability of metronidazole in larval zebrafish; type: in vivo; details: 10 mM Mtz
Experimental: as §1

mmp9+/mpeg+ macrophages = experiment: Metronidazole ablation of mmp9-expressing macrophages, TgBAC(mmp9:EGFP-NTR); type: in vivo, zebrafish
Experimental: as §1
In order to more directly implicate Cluster 2 macrophages in the regulation of regenerative muscle stem cell proliferation, we specifically ablated these cells during the repair process, using an alternative mmp9 promoter-driven transgenic line that expressed the nitroreductase enzyme fused to EGFP (TgBAC(mmp9:EGFP-NTR)^24). These larvae were subjected to a needle stab muscle injury at 4 dpf (0 dpi). At 1.75 dpi larvae were treated with 5 mM Mtz, a dosing that specifically ablated 77.94% of mmp9^+/mpeg^+-macrophages present in the injury zone (FIG. 10b-d). Specific ablation of these cells led to a significant skeletal muscle repair deficit (FIG. 3p-q) and a severe reduction in muscle stem cell proliferation to levels similar to those evident upon mpeg^+-dwelling macrophage ablation, documented above (FIG. 2f-h, FIG. 3r, FIG. 10e-g). Collectively, these analyses indicate that Cluster 2 contains a specific mmp9^+ muscle stem cell-associated, dwelling macrophage subset required for muscle stem cell proliferation during muscle regeneration

macrophages = experiment: Nitroreductase-mediated macrophage ablation by metronidazole, Tg(mpeg1:GAL4FF/UAS:NfsB-mCherry); type: in vivo, zebrafish
Experimental: as §1

Molecule: CCCCOCCOc1ccc(-c2ccc3c(c2)/C=C(/C(=O)Nc2ccc([S@@+]([O-])Cc4cncn4CCC)cc2)CCCN3CC(C)C)cc1 [CVC, cenicriviroc, reference compound]
- wound site muscle stem cell proliferation [1]: proliferation is inhibited by CVC addition; also recorded: resulted in a proliferation deficit; also recorded: reduction in the proliferation of pax3a^+ myogenic stem cells; also recorded: reduction in the proliferation of par3a^+ myogenic stem cells
- muscle regeneration (birefringence) [2]: marked regeneration deficit; also recorded: highly significant regeneration deficit
- effect on macrophage-stimulated satellite cell proliferation (PAX7+ satellite cells): a response that is inhibited; also recorded: reduced satellite cell proliferation in MB+MΦ culture conditions to levels evident in MB alone or MB+3T3 cultures
- effect on NAMPT-stimulated satellite cell proliferation (PAX7+ satellite cells): pro-proliferative response is abolished; also recorded: an effect that was abolished
- effect on NAMPT-induced myoblast proliferation (C2C12 myoblasts): abolishes NAMPT's pro-proliferative response; also recorded: proliferative response was blocked

Molecule: maraviroc [MVC, reference compound]
- wound site muscle stem cell proliferation [1]: reduction in the proliferation of pax3a^+ myogenic stem cells; also recorded: reduction in the proliferation of par3a^+ myogenic stem cells
- muscle regeneration (birefringence) [2]: marked regeneration deficit; also recorded: highly significant regeneration deficit
- effect on macrophage-stimulated satellite cell proliferation (PAX7+ satellite cells): pro-proliferative response is abolished
- effect on NAMPT-stimulated satellite cell proliferation (PAX7+ satellite cells): an effect that was abolished
- effect on NAMPT-induced myoblast proliferation (C2C12 myoblasts): abolishes NAMPT's pro-proliferative response; also recorded: proliferative response was blocked

Molecule: N#CN=C(NCCCCCCOc1ccc(Cl)cc1)Nc1ccncc1 [GMX1778, reference compound]
- wound site muscle stem cell proliferation [1]: had no effect on muscle stem cell proliferation in the injury zone; also recorded: did not alter muscle stem cell proliferation
- myoblast proliferation, factor added alone (C2C12 myoblasts; 6 h in growth media): no negative effect on the basal level of C2C12 proliferation
- effect on NAMPT-induced myoblast proliferation (C2C12 myoblasts): does not impact its effect on myoblast proliferation; also recorded: did not affect the increased myoblast proliferation
- larval NAD+/NADH levels (Nampt): severe reduction in larval NAD^+/NADH levels

Molecule: Cc1ncc([N+](=O)[O-])n1CCO [Mtz, metronidazole]
- lethality, needle stab injured larvae (larval zebrafish): significant lethality
- tolerability, uninjured larvae (larval zebrafish): able to tolerate
- ablation of mmp9+/mpeg+ macrophages (mmp9+/mpeg+ macrophages; 5 mM Mtz at 1.75 dpi): 77.94%
- number of mmp9+/mpeg+ macrophages in injury zone (mmp9+/mpeg+ macrophages; Mtz treated): 2.18±1.19
- number of mmp9-/mpeg+ macrophages in injury zone (mmp9+/mpeg+ macrophages; Mtz treated): 6.65±1.50
- time to start of macrophage ablation after Mtz addition (macrophages; 5 mM Mtz): 3 h
- macrophage ablation (macrophages; 5 mM Mtz for 24 h from 4 dpf, trunk macrophages at 5 dpf): 77%
- time until majority of trunk macrophages ablated (macrophages; Mtz): 10 to 13 h
